Experimental data published in US9724396B2, “Use of antagonists of growth hormone or growth hormone receptor to prevent or treat stress-sensitive psychiatric illness” (Massachusetts Institute of Technology, priority 2013, dated 2017).

Experiments:
ghrelin receptor = molecular target: T1, ghrelin receptor (Rattus norvegicus, UniProt O08725); test: GH release from short-term BLA cell cultures after ghrelin receptor stimulation; format: cell-based; settings: versus vehicle
T1 construct: short-term cultures were generated of BLA cells and measured GH protein in the media following treatment with either MK-0677 or vehicle; endogenous in cells; host or cells: short-term cultures of basolateral amygdala (BLA) cells
Experimental: (§1) Animals were killed 24 h after the last stress or handling session and the basolateral complex of the amygdala (BLA) was dissected. Growth hormone (GH) levels in the BLA were measured using enzyme-linked immunosorbent assay (ELISA). b) The herpes simplex virus (HSV)-based viral vectors expressing either green fluorescent protein (GFP; CON) or recombinant rat GH (rGH) was infused in the BLA and expression was assessed after behavioral testing was complete. Representative GFP expression from two rats is shown. c) Auditory Pavlovian fear conditioning was performed 3 days after HSV virus infusions. d) Long-term fear memory was assessed by placing the animals in a novel context and measuring conditional freezing following tone presentation 48 h after the conditioning session. e) Short-term BLA cell cultures were used to measure GH release following treatment with a ghrelin receptor agonist (MK) or vehicle (VEH). f) Adeno-associated virus (AAV) constructs were generated to examine the contribution of GH-mediated signaling in the BLA to ghrelin-induced potentiation of fear. g) Following infusion of the AAVs into the BLA and recovery, rats received 10 days of systemic injection of either a ghrelin receptor agonist (MK) or vehicle (VEH). […]

endogenous GH = test: Auditory fear conditioning after intra-BLA AAV (GHA or GFP) and 10 days of systemic MK-0677 or saline; format: in vivo, rat; settings: 10 days MK-0677 or saline, tested 48 h after conditioning
Experimental: as §1

GH = settings: Varga et al, Proc. Natl. Acad. Sci. USA 1999; cited from earlier work

T1 sequence (O08725 whole entry): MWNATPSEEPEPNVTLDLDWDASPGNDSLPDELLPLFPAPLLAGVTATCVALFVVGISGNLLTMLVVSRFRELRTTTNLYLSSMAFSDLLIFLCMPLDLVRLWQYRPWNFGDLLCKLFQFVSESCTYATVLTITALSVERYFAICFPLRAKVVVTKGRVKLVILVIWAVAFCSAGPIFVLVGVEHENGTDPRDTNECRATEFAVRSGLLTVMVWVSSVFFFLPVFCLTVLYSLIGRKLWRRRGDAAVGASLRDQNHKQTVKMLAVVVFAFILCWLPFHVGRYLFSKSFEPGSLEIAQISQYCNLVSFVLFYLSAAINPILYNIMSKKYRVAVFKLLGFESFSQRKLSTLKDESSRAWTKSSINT

release of GH into the media (ghrelin receptor)	Compound	long-term auditory fear memory (endogenous GH)	antagonistic activity (GH)
significantly elevated release of GH	CC(C)(N)C(=O)N[C@H](COCc1ccccc1)C(=O)N1CCC2(CC1)CN(S(C)(=O)=O)c1ccccc12 [MK-0677]	fear-enhancing effects	–
–	[PhAc-Tyr1,D-Arg2,Phe(4-Cl)6, Har9,Tyr(Me)10,Abu15,Nle27,D-Arg28,Har29]hGH-RH(1-29)NH2 [JV-1-38]	–	high and or protracted antagonistic activity
–	[PhAc-Tyr1,D-Arg2,Phe(4-Cl)6,Abu15,Nle27, D-Arg28,Har29]hGH-RH(1-29)NH2 [MZ-6-55]	–	high and or protracted antagonistic activity
–	[PhAc-Tyr1,DArg2, Phe(4-Cl)6,Arg9,Abu15,Nle27,D-Arg28,Har29]hGH-RH(1-29)NH2 [JV-1-36]	–	high and or protracted antagonistic activity
–	[PhAc-Tyr1,DArg2, Phe(4-Cl)6,Arg9,Abu15,Nle27,D-Arg29]hGH-RH(1-29)NH2 [JV-1-10]	–	high and or protracted antagonistic activity
